Bridge positions count the residues as written; N and C are the ends. Ends that are not written are not given here.
Key:
[1] = biological target: T1, porcine pancreatic α-amylase (PPA) (Sus scrofa, UniProt P00690); test: PPA inhibitory activity of RP-HPLC fractions; format: biochemical; conditions: 10 µL sample, PPA 1 µg/mL, 50 mM sodium phosphate, 100 mM NaCl, pH 7.0, 10 min RT, CNPG3 1 mM, 405 nm
T1 construct: purchased Sigma Aldrich A4268
T1 sequence (P00690 16-511): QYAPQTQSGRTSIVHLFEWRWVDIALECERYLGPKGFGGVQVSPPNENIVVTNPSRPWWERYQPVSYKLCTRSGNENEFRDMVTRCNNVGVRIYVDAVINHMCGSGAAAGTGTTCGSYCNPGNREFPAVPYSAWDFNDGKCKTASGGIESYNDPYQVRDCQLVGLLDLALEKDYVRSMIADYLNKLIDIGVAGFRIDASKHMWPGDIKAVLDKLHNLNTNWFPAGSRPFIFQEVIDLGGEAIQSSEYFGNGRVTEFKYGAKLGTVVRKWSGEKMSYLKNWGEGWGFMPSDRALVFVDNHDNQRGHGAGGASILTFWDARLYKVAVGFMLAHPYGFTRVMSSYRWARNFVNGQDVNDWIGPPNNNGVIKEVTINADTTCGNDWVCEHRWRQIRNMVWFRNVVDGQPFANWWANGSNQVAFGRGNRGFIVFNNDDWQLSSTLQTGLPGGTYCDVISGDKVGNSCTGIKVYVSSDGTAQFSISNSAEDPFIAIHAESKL
Experimental: The porcine α-amylase (PPA) inhibitory activity of the peptide fractions obtained by RP-HPLC was tested by the following procedure. Experimental samples (10 µL) were added to 80 µL of 50 mM sodium phosphate, 100 mM sodium chloride buffer (pH 7.0), and PPA (A4268) (1 µg/mL) (Sigma Aldrich, St. Louis, MO, USA), and incubated for 10 min at RT. The substrate solution, 2-chloro-4-nitrophenyl α-D-maltotrioside (CNPG3) (Sigma Aldrich, St. Louis, MO, USA), was added to the reaction mixture (1 mM) and incubated for 10 min at RT. The optical absorption was measured on an xMark microplate spectrophotometer (BioRad, Hercules, CA, USA) at 405 nm.

[2] = system: Staphylococcus aureus ATCC 21027; test: Antimicrobial activity, agar dilution method; format: cell-based; conditions: 1, 5, 10, 20 µM; 100 µL in 6 mm agar wells; 18 h, 37 °C; clear zone; three independent assays
Experimental: (§1) The antimicrobial activity of r-magnificamide was tested against Gram-positive (Staphylococcus aureus ATCC 21027 and Bacillus subtilis ATCC6633), Gram-negative bacteria (Escherichia coli VKPM B-7935 and Pseudomonas aeruginosa ATCC 27853), and the fungus Candida albicans KMM 455 by the agar dilution method. Microbial strains were taken from the American Type Culture Collection (ATCC), Russian National Collection of Industrial Microorganisms (VKPM), and Collection of Marine Microorganisms (KMM) (Pacific Institute of Bioorganic Chemistry FEB RAS). To obtain a microbial lawn, 0.1 mL of a cell suspension (0.5 × 10^8 cells/mL) was uniformly distributed on agar surface in Petri dishes (15 g/L tryptic soy broth, 2 g/L bacto yeast extract, 1 g/L glucose, and 20 g/L agar for bacteria; for fungi 10 g/L of glucose was added). Wells with a diameter of 6 mm were punched into the agar and filled with 100 µL of the peptide solution at concentrations 1, 5, 10, and 20 µM. The plates were then incubated for 18 h at 37 °C for bacteria, and at 30 °C for the fungus. Minimum inhibitory concentration was determined by measuring the clear zone of inhibition around each well. All assays were performed independently three times.

Candida albicans KMM 455 = test: Antimicrobial activity, agar dilution method; format: cell-based; conditions: 1, 5, 10, 20 µM; 100 µL in 6 mm agar wells; 18 h, 30 °C; clear zone; three independent assays
Experimental: as §1

[3] = system: Escherichia coli VKPM B-7935; test: Antimicrobial activity, agar dilution method; format: cell-based; conditions: 1, 5, 10, 20 µM; 100 µL in 6 mm agar wells; 18 h, 37 °C; clear zone; three independent assays
Experimental: as §1

[4] = system: Pseudomonas aeruginosa ATCC 27853; test: Antimicrobial activity, agar dilution method; format: cell-based; conditions: 1, 5, 10, 20 µM; 100 µL in 6 mm agar wells; 18 h, 37 °C; clear zone; three independent assays
Experimental: as §1

[5] = system: Bacillus subtilis ATCC6633; test: Antimicrobial activity, agar dilution method; format: cell-based; conditions: 1, 5, 10, 20 µM; 100 µL in 6 mm agar wells; 18 h, 37 °C; clear zone; three independent assays
Experimental: as §1

“SEGTSCYIYHGVYGICKAKCAEDMKAMAGMGVCEGDLCCYKTPW (disulfide 6-38, 16-33, 20-39) [r-magnificamide]” was tested, and the “PPA inhibition by RP-HPLC fraction” value [1] was “inhibited PPA”, the “Antimicrobial activity, S. aureus” value [2] was “Not active” and the “Antimicrobial activity, C. albicans” value (Candida albicans KMM 455) was “Not active”. For the same sequence, the “Antimicrobial activity, E. coli” value [3] was “Not active”, the “Antimicrobial activity, P. aeruginosa” value [4] was “Not active” and the “Antimicrobial activity, B. subtilis” value [5] was “Not active”.

Source: paper PMC6835510, “Magnificamide, a β-Defensin-Like Peptide from the Mucus of the Sea Anemone Heteractis magnifica, Is a Strong Inhibitor of Mammalian α-Amylases” (Marine Drugs, 2019)
